From US20110136801A1, “Novel Compounds” (Dainippon Sumitomo Pharma Co. Ltd., priority 2009, published 2011)

molecular target: T1, human TLR7 (Homo sapiens, UniProt Q9NYK1); test: Human TLR7 Assay (SEAP reporter in HEK293 cells); assay type: cell-based; conditions: HEK293 cell line expressing human TLR7 and pNiFty2-SEAP reporter, overnight incubation at 37° C., 0.1% DMSO; read-out: hTLR7 EC50;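 also: Read-out is secreted alkaline phosphatase made under an NFkB/ELAM-1 composite promoter, reporting TLR7-triggered NFkB activation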
T1 construct: expressed in transfected cells; host or cells: HEK293 cell line stably expressing the pNiFty2-SEAP reporter plasmid; TLR7 in pUNO vector, blasticidin selection
T1 sequence (Q9NYK1 27-1049): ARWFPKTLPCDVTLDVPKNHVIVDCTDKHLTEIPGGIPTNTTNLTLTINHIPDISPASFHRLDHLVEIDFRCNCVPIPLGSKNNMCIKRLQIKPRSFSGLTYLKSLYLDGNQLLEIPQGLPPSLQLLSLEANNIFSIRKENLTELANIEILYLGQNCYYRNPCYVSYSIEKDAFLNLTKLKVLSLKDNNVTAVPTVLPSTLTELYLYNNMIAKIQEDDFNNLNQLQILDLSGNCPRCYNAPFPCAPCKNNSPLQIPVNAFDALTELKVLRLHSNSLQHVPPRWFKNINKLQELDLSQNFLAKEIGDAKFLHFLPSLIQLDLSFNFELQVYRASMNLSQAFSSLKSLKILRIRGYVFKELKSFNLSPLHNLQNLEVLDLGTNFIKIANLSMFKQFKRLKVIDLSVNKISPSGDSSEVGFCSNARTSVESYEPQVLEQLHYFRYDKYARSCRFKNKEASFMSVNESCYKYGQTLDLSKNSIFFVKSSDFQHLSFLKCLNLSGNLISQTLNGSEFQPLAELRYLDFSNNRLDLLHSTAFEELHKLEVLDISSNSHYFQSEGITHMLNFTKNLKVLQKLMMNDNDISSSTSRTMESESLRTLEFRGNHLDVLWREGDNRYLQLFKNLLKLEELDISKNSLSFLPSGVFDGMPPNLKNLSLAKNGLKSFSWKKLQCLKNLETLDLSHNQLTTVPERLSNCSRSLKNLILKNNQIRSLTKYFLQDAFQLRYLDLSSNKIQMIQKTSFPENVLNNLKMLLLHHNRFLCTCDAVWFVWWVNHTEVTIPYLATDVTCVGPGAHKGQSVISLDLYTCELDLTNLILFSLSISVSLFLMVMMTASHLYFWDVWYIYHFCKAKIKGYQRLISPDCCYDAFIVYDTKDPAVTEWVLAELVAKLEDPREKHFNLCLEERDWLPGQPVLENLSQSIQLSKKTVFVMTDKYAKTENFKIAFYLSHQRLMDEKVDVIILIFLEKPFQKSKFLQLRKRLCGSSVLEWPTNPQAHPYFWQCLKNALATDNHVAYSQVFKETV

Row | SMILES | EC50
1 | CCN(C)CC(=O)N(CCCn1c(CCOC)nc2c(N)nc3ccccc3c21)Cc1ccc(OC)c(OCC(=O)OC(C)C)c1 [Example 76, Isopropyl 2-{5-[(N-{3-[4-amino-2-(2-methoxyethyl)-1H-imidazo[4,5-c]quinolin-1-yl]propyl}-2-{ethyl(methyl)amino}acetamido)methyl]-2-methoxyphenoxy}acetate] | 211 nM
2 | CCOC(=O)COc1ccccc1CN(CCCn1c(CCOC)nc2c(N)nc3ccccc3c21)C(=O)CN(CC)CC [Example 41, Ethyl 2-{2-[(N-{3-[4-amino-2-(2-methoxyethyl)-1H-imidazo[4,5-c]quinolin-1-yl]propyl}-2-(diethylamino)acetamido)methyl]phenoxy}acetate] | 137 nM
3 | CCOC(=O)COc1cccc(CN(CCCn2c(CCOC)nc3c(N)nc4ccccc4c32)C(=O)CN2CCCC2)c1 [Example 31, Ethyl 2-{3-[(N-{3-[4-amino-2-(2-methoxyethyl)-1H-imidazo[4,5-c]quinolin-1-yl]propyl}-2-(pyrrolidin-1-yl)acetamido)methyl]phenoxy}acetate] | 150 nM
4 | COCCc1nc2c(N)nc3ccccc3c2n1CCCN(Cc1cccc(OCC(=O)OC2CCCC2)c1)C(=O)CN(C)C [Example 110, Cyclopentyl 2-{3-[(N-{3-[4-amino-2-(2-methoxyethyl)-1H-imidazo[4,5-c]quinolin-1-yl]propyl}-2-{dimethylamino}acetamido)methyl]phenoxy}acetate] | 128 nM
5 | CCOC(=O)COc1cccc(CN(CCCn2c(CCOC)nc3c(N)nc4ccccc4c32)C(=O)CN2CCCCC2)c1 [Example 32, Ethyl 2-{3-[(N-{3-[4-amino-2-(2-methoxyethyl)-1H-imidazo[4,5-c]quinolin-1-yl]propyl}-2-(piperidin-1-yl)acetamido)methyl]phenoxy}acetate] | 177 nM
6 | COCCc1nc2c(N)nc3ccccc3c2n1CCCNC(=O)N(CCCN(C)C)Cc1ccc(OCC(=O)OC)cc1 [Example 22, Methyl [4-({[({3-[4-amino-2-(2-methoxyethyl)-1H-imidazo[4,5-c]quinolin-1-yl]propyl}amino)carbonyl][3-(dimethylamino)propyl]amino}methyl)phenoxy]acetate] | 188 nM
7 | CCOC(=O)COc1cccc(CN(CCCn2c(CCOC)nc3c(N)nc4ccccc4c32)C(=O)CN(C)C)c1 [Example 33, Ethyl 2-{3-[(N-{3-[4-amino-2-(2-methoxyethyl)-1H-imidazo[4,5-c]quinolin-1-yl]propyl}-2-(dimethylamino)acetamido)methyl]phenoxy}acetate] | 177 nM
8 | CCOC(=O)COc1cc(CN(CCCCn2c(CCOC)nc3c(N)nc4ccccc4c32)C(=O)NCCN2CCCCC2)ccc1F [Example 140, Ethyl 2-{5-[(1-{4-[4-amino-2-(2-methoxyethyl)-1H-imidazo[4,5-c]quinolin-1-yl]butyl}-3-{2-(piperidin-1-yl)ethyl}ureido)methyl]-2-fluorophenoxy}acetate] | 79.1 nM
9 | COCCc1nc2c(N)nc3ccccc3c2n1CCOCCN(Cc1cccc(OCC(=O)OC(C)C)c1)C(=O)NCCN1CCCCC1 [Example 152, Isopropyl 2-(3-{[1-(2-{2-[4-amino-2-(2-methoxyethyl)-1H-imidazo[4,5-c]quinolin-1-yl]ethoxy}ethyl)-3-{2-(piperidin-1-yl)ethyl}ureido]methyl}phenoxy)acetate] | 266 nM
10 | CCCCc1nc2c(N)nc3ccccc3c2n1CCCN(Cc1ccc(OCC(=O)OC)cc1)C(=O)CN1CCCCC1 [Example 6, Methyl (4-{[[3-(4-amino-2-butyl-1H-imidazo[4,5-c]quinolin-1-yl)propyl](piperidin-1-ylacetyl)amino]methyl}phenoxy)acetate] | 169 nM
11 | COCCc1nc2c(N)nc3ccccc3c2n1CCCN(Cc1cccc(OCC(=O)OC(C)C)c1F)C(=O)CN(C)C [Example 96, Isopropyl 2-{3-[(N-{3-[4-amino-2-(2-methoxyethyl)-1H-imidazo[4,5-c]quinolin-1-yl]propyl}-2-{dimethylamino}acetamido)methyl]-2-fluorophenoxy}acetate] | 304 nM
12 | COCCc1nc2c(N)nc3ccccc3c2n1CCCN(Cc1cccc(OCC(=O)OC(C)C)c1)C(=O)CN(C)CCOC [Example 115, Isopropyl 2-{3-[(N-{3-[4-amino-2-(2-methoxyethyl)-1H-imidazo[4,5-c]quinolin-1-yl]propyl}-2-{(2-methoxyethyl)(methyl)amino}acetamido)methyl]phenoxy}acetate] | 173 nM
13 | CCN(CC)CC(=O)N(CCCn1c(CCOC)nc2c(N)nc3ccccc3c21)Cc1cccc(OCC(=O)OC(C)C)c1OC [Example 90, Isopropyl 2-{3-[(N-{3-[4-amino-2-(2-methoxyethyl)-1H-imidazo[4,5-c]quinolin-1-yl]propyl}-2-{diethylamino}acetamido)methyl]-2-methoxyphenoxy}acetate] | 81 nM

These reach a lower EC50. Values come first.

Row | EC50 | SMILES
14 | 67.8 nM | CCN(C)CC(=O)N(CCCn1c(CCOC)nc2c(N)nc3ccccc3c21)Cc1cccc(OCC(=O)OC(C)C)c1 [Example 114, Isopropyl 2-{3-[(N-{3-[4-amino-2-(2-methoxyethyl)-1H-imidazo[4,5-c]quinolin-1-yl]propyl}-2-{ethyl(methyl)amino}acetamido]methyl)phenoxy}acetate]
15 | 58.7 nM | CCOC(=O)COc1cccc(CN(CCCn2c(CCOC)nc3c(N)nc4ccccc4c32)C(=O)CN(CC)CC)c1 [Example 25, Ethyl 2-{3-[(N-{3-[4-amino-2-(2-methoxyethyl)-1H-imidazo[4,5-c]quinolin-1-yl]propyl}-2-(diethylamino)acetamido)methyl]phenoxy}acetate]
16 | 56.4 nM | COCCc1nc2c(N)nc3ccccc3c2n1CCCCN(CCN(C)C)Cc1cccc(OCC(=O)OC(C)C)c1 [Example 132, Isopropyl 2-{3-[({4-[4-amino-2-(2-methoxyethyl)-1H-imidazo[4,5-c]quinolin-1-yl]butyl}{2-[dimethylamino]ethyl}amino)methyl]phenoxy}acetate]
17 | 54.6 nM | CCCOC(=O)COc1cccc(CN(CCCn2c(CCOC)nc3c(N)nc4ccccc4c32)C(=O)CN(CC)CC)c1 [Example 26, Propyl 2-{3-[(N-{3-[4-amino-2-(2-methoxyethyl)-1H-imidazo[4,5-c]quinolin-1-yl]propyl}-2-(diethylamino)acetamido)methyl]phenoxy}acetate]
18 | 50.2 nM | CCN(CC)CC(=O)N(CCCn1c(CCOC)nc2c(N)nc3ccccc3c21)Cc1cc(F)cc(OCC(=O)OC(C)C)c1 [Example 123, Isopropyl 2-{3-[(N-{3-[4-amino-2-(2-methoxyethyl)-1H-imidazo[4,5-c]quinolin-1-yl]propyl}-2-{diethylamino}acetamido)methyl]-5-fluorophenoxy}acetate]
19 | 46.4 nM | CCOC(=O)C(C)(C)Oc1cccc(CN(CCCn2c(CCOC)nc3c(N)nc4ccccc4c32)C(=O)CN(CC)CC)c1 [Example 55, Ethyl 2-{3-[(N-{3-[4-amino-2-(2-methoxyethyl)-1H-imidazo[4,5-c]quinolin-1-yl]propyl}-2-{diethylamino}acetamido)methyl]phenoxy}-2-methylpropanoate]
20 | 42.6 nM | CCN(CC)CC(=O)N(CCCn1c(CCOC)nc2c(N)nc3ccccc3c21)Cc1cccc(OC(C)C(=O)OC)c1 (centres unmarked) [Example 51, Methyl 2-{3-[(N-{3-[4-amino-2-(2-methoxyethyl)-1H-imidazo[4,5-c]quinolin-1-yl]propyl}-2-{diethylamino}acetamido)methyl]phenoxy}propanoate]
21 | 25.9 nM | CCC(Oc1cccc(CN(CCCn2c(CCOC)nc3c(N)nc4ccccc4c32)C(=O)CN(CC)CC)c1)C(=O)OC (centres unmarked) [Example 70, Methyl 2-{3-[(N-{3-[4-amino-2-(2-methoxyethyl)-1H-imidazo[4,5-c]quinolin-1-yl]propyl}-2-{diethylamino}acetamido)methyl]phenoxy}butanoate]
22 | 24.4 nM | CCOC(=O)COc1cccc(CN(CCN2CCCCC2)C(=O)NCCCCn2c(CCOC)nc3c(N)nc4ccccc4c32)c1 [Example 130, Ethyl 2-{3-[(3-{4-[4-amino-2-(2-methoxyethyl)-1H-imidazo[4,5-c]quinolin-1-yl]butyl}-1-{2-(piperidin-1-yl)ethyl}ureido)methyl]phenoxy}acetate]
23 | 16.6 nM | COCCc1nc2c(N)nc3ccccc3c2n1CCCCN(CCN(C)C)Cc1cccc(OC(C)(C)C(=O)OC)c1 [Example 135, Methyl 2-{3-[({4-[4-amino-2-(2-methoxyethyl)-1H-imidazo[4,5-c]quinolin-1-yl]butyl}{2-(dimethylamino)ethyl}amino)methyl]phenoxy}-2-methylpropanoate]
